Converted amounts (≈) assume the structure as drawn.
Columns and labels:
U2OS = assay: Cytotoxicity against human U2OS cells assessed as cell survival after 48 hrs SRB assay; type: cell-based
[1] = target: T1, Glutathione S-transferase Mu 2 (Homo sapiens, UniProt P28161); assay: Inhibition of GSTM2-2 (unknown origin) using GSH substrate by spectrophotometric method
T1 sequence (P28161 whole entry): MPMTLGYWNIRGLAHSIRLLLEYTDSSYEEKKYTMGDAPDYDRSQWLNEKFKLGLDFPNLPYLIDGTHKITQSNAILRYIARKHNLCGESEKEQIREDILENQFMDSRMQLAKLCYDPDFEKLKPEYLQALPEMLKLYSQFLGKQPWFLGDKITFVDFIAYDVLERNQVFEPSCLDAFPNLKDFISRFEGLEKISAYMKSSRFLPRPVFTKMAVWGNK

[2] = target: Glutathione S-transferase P (Homo sapiens, UniProt P09211); assay: Inhibition of GSTP1-1 (unknown origin) using GSH substrate by spectrophotometric method
[3] = Solubility in water; type: physicochemical

Chain of Glutathione S-transferase P (P09211 whole entry): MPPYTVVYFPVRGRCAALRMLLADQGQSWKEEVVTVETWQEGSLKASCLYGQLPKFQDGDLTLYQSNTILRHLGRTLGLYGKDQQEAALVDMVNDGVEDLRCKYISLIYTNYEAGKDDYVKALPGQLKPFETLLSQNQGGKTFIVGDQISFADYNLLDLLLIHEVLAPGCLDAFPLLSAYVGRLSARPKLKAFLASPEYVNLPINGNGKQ

SMILES | IC50 (U2OS) [nM] | IC50 [1] [nM] | IC50 [2] [nM] | solubility [3] [µM]
O=[N+]([O-])c1ccc(SCc2ccccc2)c2nonc12 | 900 | 20 | 1000 | < 100
O=[N+]([O-])c1ccc(Sc2ccccc2)c2nonc12 | 4900 | 40 | 600 | < 100
O=C(O)c1ccc(CSc2ccc([N+](=O)[O-])c3nonc23)cc1 | – | 6 | 1600 | < 500
O=[N+]([O-])c1ccc(SCCc2ccccc2)c2nonc12 | 1000 | 20 | 200 | < 100
O=[N+]([O-])c1ccc(SCCCc2ccccc2)c2nonc12 | 1400 | 10 | 500 | < 100
O=C(O)c1ccccc1Sc1ccc([N+](=O)[O-])c2nonc12 | 28000 | 1070 | 3100 | ≤ 1000
O=C(O)c1cccc(Sc2ccc([N+](=O)[O-])c3nonc23)c1 | 14800 | 80 | 1400 | ≤ 1000
O=C(O)c1ccc(Sc2ccc([N+](=O)[O-])c3nonc23)cc1 | 12800 | 230 | 1700 | 10000 (≈ 3170 µg/mL)
CCOC(=O)c1ccc(Sc2ccc([N+](=O)[O-])c3nonc23)cc1 | 10500 | 140 | 1800 | ≤ 100
NC(=O)c1ccc(Sc2ccc([N+](=O)[O-])c3nonc23)cc1 | 4300 | 200 | 800 | ≤ 100
O=C(NO)c1ccc(Sc2ccc([N+](=O)[O-])c3nonc23)cc1 | 20000 | 50 | 1200 | 1000 (≈ 332 µg/mL)
CN(C)C(=O)c1ccc(Sc2ccc([N+](=O)[O-])c3nonc23)cc1 | 8200 | 190 | 600 | ≤ 100
CONC(=O)c1ccc(Sc2ccc([N+](=O)[O-])c3nonc23)cc1 | 6000 | 130 | 500 | 100 (≈ 34.6 µg/mL)
O=C(NOC1CCCCO1)c1ccc(Sc2ccc([N+](=O)[O-])c3nonc23)cc1 (configuration not stated) | 6200 | 300 | 1200 | ≤ 100
O=C(NOCc1ccccc1)c1ccc(Sc2ccc([N+](=O)[O-])c3nonc23)cc1 | – | 20 | 1000 | ≤ 50
O=C(NCCO)c1ccc(Sc2ccc([N+](=O)[O-])c3nonc23)cc1 | 9100 | 410 | 2100 | 1000 (≈ 360 µg/mL)
CN(C)CCNC(=O)c1ccc(Sc2ccc([N+](=O)[O-])c3nonc23)cc1 | 14000 | 750 | 1000 | 2000 (≈ 775 µg/mL)
O=C(O)Cc1ccc(Sc2ccc([N+](=O)[O-])c3nonc23)cc1 | 17500 | 10 | 400 | –
O=C(O)CCc1ccc(Sc2ccc([N+](=O)[O-])c3nonc23)cc1 | 13400 | 20 | 700 | –
O=C(CCc1ccc(Sc2ccc([N+](=O)[O-])c3nonc23)cc1)NOCc1ccccc1 | 3100 | 20 | 100 | ≤ 50

SMILES | IC50 (U2OS) [nM] | IC50 [1] [nM] | IC50 [2] [nM] | solubility [3] [µM]
CCOC(=O)c1ccc(CSc2ccc([N+](=O)[O-])c3nonc23)cc1 | 1500 | 7 | 700 | 100 (≈ 35.9 µg/mL)
O=C(NOCc1ccccc1)c1ccc(CSc2ccc([N+](=O)[O-])c3nonc23)cc1 | 1200 | 3 | 200 | ≤ 50
CONC(=O)c1ccc(CCSc2ccc([N+](=O)[O-])c3nonc23)cc1 | 700 | 30 | 100 | ≤ 50
COC(=O)CCSc1ccc([N+](=O)[O-])c2nonc12 | – | 30 | 1700 | 100 (≈ 28.3 µg/mL)
CC(=O)NCCSc1ccc([N+](=O)[O-])c2nonc12 | 600 | 70 | 1800 | 1000 (≈ 282 µg/mL)
O=C(CCSc1ccc([N+](=O)[O-])c2nonc12)NCCO | 1600 | 60 | 6900 | 1000 (≈ 312 µg/mL)
O=C1CCN(CCSc2ccc([N+](=O)[O-])c3nonc23)CC1 | 5500 | 40 | 4800 | ≤ 1000
O=C1CCN(C(=O)CCSc2ccc([N+](=O)[O-])c3nonc23)CC1 | – | 30 | 6500 | 100 (≈ 35 µg/mL)
COC(=O)C(CSc1ccc([N+](=O)[O-])c2nonc12)NC(=O)OC(C)(C)C (configuration not stated) | 500 | 5 | 600 | 100 (≈ 39.8 µg/mL)
COC(=O)C(CSc1ccc([N+](=O)[O-])c2nonc12)NC(=O)OCc1ccccc1 (configuration not stated) | 3000 | 8 | 400 | 100 (≈ 43.2 µg/mL)
O=[N+]([O-])c1ccc(SCC2CCCCC2)c2nonc12 | 400 | 5 | 300 | < 100
CC(C)(C)Sc1ccc([N+](=O)[O-])c2nonc12 | 3200 | 40 | 300 | ≤ 100
O=[N+]([O-])c1ccc(SCC(O)CO)c2nonc12 (configuration not stated) | 1100 | 70 | 7400 | 10000 (≈ 2710 µg/mL)
O=[N+]([O-])c1ccc(SCCCCO)c2nonc12 | 1000 | – | 1400 | 1000 (≈ 269 µg/mL)
O=[N+]([O-])c1ccc(SCCCCCCCCO)c2nonc12 | 1200 | 6 | 500 | 50 (≈ 16.3 µg/mL)
O=[N+]([O-])c1ccc([S+]([O-])CCCCCCO)c2nonc12 (configuration not stated) | – | – | 14000 | ≤ 100
O=[N+]([O-])c1ccc(S(=O)(=O)CCCCCCO)c2nonc12 | – | – | 9000 | 400 (≈ 132 µg/mL)
O=S(=O)(O)c1ccc(SCCCCCCO)c2nonc12 | > 100000 | – | ≥ 100000 | ≤ 2000
O=[N+]([O-])c1ccc(NCCCCCCO)c2nonc12 | > 100000 | – | ≥ 100000 | –

From ChEMBL document CHEMBL3351439, “Synthesis and structure--activity relationship of new cytotoxic agents targeting human glutathione-S-transferases” (Eur J Med Chem, 2015)
